From PMC11350868, “A Novel Bacitracin-like Peptide from Mangrove-Isolated Bacillus paralicheniformis NNS4-3 against MRSA and Its Genomic Insights” (Antibiotics, 2024)

Tested on: MRSA strain 2468
Assay: Time-kill kinetics
Assay type: cell-based, Staphylococcus aureus
Conditions: 4× MIC; CAMHB, 37 °C
Protocol: S. aureus TISTR 517 and MRSA strain 2468 were adjusted to a cell density of 5 × 10^5 CFU/mL with CAMHB for the initial treatment. […] The reactions were conducted at 37 °C, followed by spreading the total volume onto MH agar at specific time intervals (0–24 h). Subsequently, the spread plates were incubated at 37 °C for 24 h before counting the colonies. The bacterial reduction trends were presented with a log10 scale of viable cells (logCFU/mL) versus treatment duration. The bacterial cell reduction was determined within 24 h. Each experiment was conducted in triplicate on the 96-well plates. The presence of significant differences (p-value < 0.05) was assessed by two-way ANOVA, followed by the post hoc Tukey’s test for conducting multiple comparisons between treated and non-treated samples at each time interval.

CC(C)CC(NC(=O)C(N)CCCCN)C(=O)NC(CC(C)C)C(=O)NC(CCCCN)C(=O)NC(CC(=O)O)C(=O)NC(CC(C)C)C(=O)NC(Cc1ccccc1)C(=O)NC(Cc1c[nH]cn1)C(=O)NC(CC(=O)O)C(=O)NC(CC(N)=O)C(=O)O (single isomer, unassigned) [NNS4-3 AMP]
time of treatment to complete elimination of viable cells: ≤ 8 h
